Assay results from patent US6825230B2, “Spiro and dispiro 1,2,4-trixolane antimalarials” (Medicines for Malaria Venture MMV, priority 2002, dated 2004).
Where two headings read alike, the source gives them in different places.

Assays:
[1] = system: ANKA strain of P. berghei; assay: Single dose STI in vivo screen in infected mice; design: species or system Plasmodium berghei; conditions: for Survival (days) 10 mg/kg SSV po: single 10 mg/kg po in SSV, untreated 6-7 days
P. berghei ANKA strain [2] = assay: Onset of action and recrudescence experiment, single 100 mg/kg po; type: in vivo, Plasmodium berghei; conditions: single 100 mg/kg po (SSV) on day +3 post-infection; recrudescence = >5% parasitemia; followed up to 60 days; groups of five
Method: The onset of drug action was determined after a single fixed dose of 100 mg/kg (SSV vehicle) po to groups of five animals on day +3 post-infection (day 0).
(§1) Moro NMRI male mice (Fu Albino specific pathogen free) weighing 18±2 g were infected intravenously (i.v.) with 2×10^7 P. berghei ANKA strain-infected erythrocytes from donor mice on day 0 of the experiment. From donor mice with circa 30% parasitemia, heparinized blood was taken and diluted in physiological saline to 10^8 parasitized erythrocytes per ml. An aliquot (0.2 ml) of this suspension was injected i.v. into experimental and control groups of mice. […] Throughout the experiments, mice were kept in groups of three or five animals in Makrolon type II cages in an air-conditioned animal room at 22 to 23° C.

[3] = system: Schistosoma mansoni adult worms (49-day-old); assay: Effect on adult schistosomes (49-day-old) in infected mice; type: in vivo; conditions: single 400 mg/kg per os; for % reduction of adult worms growth at day 49 after per os application of 400 mg/kg, TWR (%): 49-day-old adults, total worm reduction rate; for Adult worms day 49, per os 400 mg/kg, DEAD WORM (%): percentage of dead worm in the liver
Method: Mice were infected with 100 Schistosoma mansoni cercariae on day 49 post-treatment. Each group was treated per os with OZ compounds at single doses of 200, 400, and 600 mg/kg. Untreated mice served as the control. All groups were killed 4 weeks after treatment and the liver and intestine were removed and separated. The liver and intestine were compressed and alive male and female worms could be seen and counted.

[4] = system: ANKA strain of Plasmodium berghei; assay: Single dose ED50/ED90/ED99 determination in infected mice; type: in vivo; conditions: for ED50: Plasmodium berghei
Summary of the method: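 Moro SPF or NMRI mice (three per group) infected with P. berghei ANKA were dosed once on day 1 post-infection in SSV (0.5% CMC, 0.5% benzyl alcohol, 0.4% Tween 80, 0.9% NaCl). Parasitemia reduction was scored on day 3; ED values (mg/kg) came from nonlinear fitting.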

[5] = Pharmacokinetics in rats (IV and oral dosing); conditions: in vivo, rat
Excerpt: (§2) Artesunate is listed as a reference compound.

[6] = Pharmacokinetics in dogs (IV and oral dosing); conditions: in vivo, dog; for bioavailability: some values marked (V), not defined
Excerpt: as §2

P. berghei ANKA strain [7] = assay: Divided 3x10 mg/kg vs single 1x30 mg/kg po dose in infected mice; type: in vivo, Plasmodium berghei; conditions: for Survival (days) 3 × 10 mg/kg p.o. SSV / Activity (%) 3 × 10 mg/kg p.o. SSV: 10 mg/kg po on days 1, 2, 3 post-infection; for Activity (%) 3 × 10 mg/kg p.o. SSV / Activity (%) 1 × 30 mg/kg p.o. SSV: parasitemia reduction on day 4; for Survival (days) 1 × 30 mg/kg p.o. SSV / Activity (%) 1 × 30 mg/kg p.o. SSV: single 30 mg/kg po on day 1 post-infection; for Cures 1 × 30 mg/kg p.o. SSV: single 30 mg/kg po, cure = survival to day 30 post-infection
P. berghei ANKA strain [8] = assay: Divided 3x3 mg/kg and 3x1 mg/kg po doses in infected mice; type: in vivo, Plasmodium berghei
Summary of the method: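 Male NMRI mice were infected i.v. with 2×10^7 P. berghei-parasitized erythrocytes on day 0, then dosed orally in SSV vehicle on days 1, 2 and 3 post-infection.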

P. berghei ANKA strain [9] = assay: Prophylactic activity, single 100 mg/kg po at various times before infection; type: in vivo, Plasmodium berghei; conditions: for Prophylactic Activity (%) 24 h: single 100 mg/kg po 24 h before infection; for Prophylactic Activity (%) 48 h: single 100 mg/kg po 48 h before infection; for Prophylactic Activity (%) 0 h: single 100 mg/kg po at 0 h
Method: as §1
Prophylactic activities of the compounds were compared after administering po single dose of 100 mg/kg to different groups of five animals at various times before infection. All groups including an untreated control group, were then infected at the same time. Parasitemia was determined for each animal on day 3 post-infection, and percent of reduction of the level of parasitemia compared to levels for animals given no drug is determined.

[10] = system: chloroquine-resistant K1 strain of P. falciparum; assay: In vitro antimalarial semiautomated microdilution assay ([3H]-hypoxanthine incorporation), K1 strain; type: cell-based, Plasmodium falciparum; conditions: Plasmodium falciparum, K1, 72 h, read-out: IC50 (ng/ml) K1, chloroquine-resistant K1 strain, 72 h incubation
Summary of the method: (§3)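 Logit regression analysis yields the fifty percent inhibitory concentration. Compounds are tested by semiautomated microdilution on intraerythrocytic parasites drawn from asynchronous stock cultures, measuring [3H]-hypoxanthine incorporation.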

[11] = system: chloroquine-sensitive NF54 strain of P. falciparum; assay: In vitro antimalarial semiautomated microdilution assay ([3H]-hypoxanthine incorporation), NF54 strain; type: cell-based, Plasmodium falciparum; conditions: Plasmodium falciparum, NF54, 72 h, read-out: IC50 (ng/ml) NF54, chloroquine-sensitive NF54 strain, 72 h incubation
Summary of the method: as §3

[12] = single dose po in SSV on day 1 post-infection, parasitemia day 3, nonlinear fitting
[13] = oral 10 mg/kg, read-out: Dog Oral Bioavailability 10 mg/kg
[14] = oral 25 mg/kg, read-out: Dog Oral Bioavailability 25 mg/kg
[15] = 3 × 1 mg/kg p.o. SSV on days 1, 2, 3 post-infection
[16] = 3 × 3 mg/kg p.o. SSV on days 1, 2, 3 post-infection
[17] = 3 × 3 mg/kg p.o. SSV on days 1, 2, 3 post-infection, percent reduction of parasitemia vs control on day 4
[18] = parasitemia reduction on day 3 post-infection

Compound	Survival (days) 10 mg/kg SSV po [1] [days]	Time of Recrudescence (P. berghei ANKA strain [2]) [days]	% reduction of adult worms growth at day 49 after per os application of 400 mg/kg, TWR (%) [3]	Adult worms day 49, per os 400 mg/kg, DEAD WORM (%) [3]	ED99 [4, 12] [mg/kg]	half-life ([5]; IV 10 mg/kg) [h]	half-life ([5]; oral 25 mg/kg) [h]	half-life ([6]; IV 10 mg/kg) [h]	half-life ([6]; oral 10 mg/kg) [h]	bioavailability [6, 13] [%]	bioavailability [6, 14] [%]	Survival (days) 3 × 10 mg/kg p.o. SSV (P. berghei ANKA strain [7]) [days]	Activity (%) 3 × 10 mg/kg p.o. SSV (P. berghei ANKA strain [7]) [%]	Survival (days) 1 × 30 mg/kg p.o. SSV (P. berghei ANKA strain [7]) [days]	Activity (%) 1 × 30 mg/kg p.o. SSV (P. berghei ANKA strain [7]) [%]	Cures 1 × 30 mg/kg p.o. SSV (P. berghei ANKA strain [7])	Survival (P. berghei ANKA strain [8]; [15]) [days]	Survival (P. berghei ANKA strain [8]; [16]) [days]	Activity (%) (P. berghei ANKA strain [8]; [17])	Prophylactic Activity (%) 24 h (P. berghei ANKA strain [9]; [18]) [%]	further results
CC(C)(N)CNC(=O)C[C@H]1CC[C@]2(CC1)OO[C@]1(O2)C2CC3CC(C2)CC1C3 [OZ277]	9.3	13.0	0/0%	0/0%	4.4	1.29	1.51	1.58	2.47	87.9	96.1	27.6	100	10.4	99.92	0/5	9.4	14	100	25	Survival (days) 3 mg/kg SSV po ([1]; single 3 mg/kg po in SSV): 9.6 days; ED50 ([4]; single dose po in SSV on day 1 post-infection, parasitemia day 3, nonlinear fitting, read-out: ED50): 0.78 mg/kg; ED90 ([4]; po): 2.0 mg/kg; bioavailability ([5]; po, 10 mg/kg): 36.9%; bioavailability ([5]; po, 25 mg/kg): 44.1%; Activity (%) (P. berghei ANKA strain [8]; po, 1 mg/kg, 96 h): 83%; Cures (P. berghei ANKA strain [8]; po, 3 mg/kg, 720 h): 0\5; Prophylactic Activity (%) 72 h (P. berghei ANKA strain [9]; po, 100 mg/kg): 9%; Prophylactic Activity (%) 48 h (P. berghei ANKA strain [9]; [18]): 7%; Prophylactic Activity (%) 0 h (P. berghei ANKA strain [9]; [18]): 100%
Cc1ccc(S(=O)(=O)O)cc1.O=C(C[C@H]1CC[C@]2(CC1)OO[C@]1(O2)C2CC3CC(C2)CC1C3)N1CCNCC1 [OZ279]	9.3	15.0	0%	12%	3.9	1.68	2.78	2.96	3.26	32.8	55.7	25.4	100	14.8	99.95	0/5	8.8	14.8	100	97	IC50 [10]: 0.21 ng/mL; IC50 [11]: 0.24 ng/mL; Activity (%) 3 mg/kg SSV po ([1]; single 3 mg/kg po in SSV, percent reduction in parasitemia on day 3): 99.42%; Activity (%) 10 mg/kg SSV po ([1]; single 10 mg/kg po in standard suspending vehicle (SSV) on day 1 post-infection, percent reduction in parasitemia on day 3): 99.98%; ED50 ([4]; po, single dose po in SSV on day 1 post-infection, parasitemia day 3, nonlinear fitting): 0.63 mg/kg; ED90 [4, 12]: 1.8 mg/kg; bioavailability ([5]; oral 10 mg/kg, read-out: Rat Oral Bioavailability 10 mg/kg): 37.2%; bioavailability ([5]; oral 25 mg/kg, read-out: Rat Oral Bioavailability 25 mg/kg): 71.1%; Activity (%) (P. berghei ANKA strain [8]; 3 × 1 mg/kg p.o. SSV on days 1, 2, 3 post-infection, percent reduction of parasitemia vs control on day 4): 83%; Prophylactic Activity (%) 48 h (P. berghei ANKA strain [9]; [18]): 27%; Prophylactic Activity (%) 72 h (P. berghei ANKA strain [9]; single 100 mg/kg po 72 h before infection, parasitemia reduction on day 3 post-infection): 14%; Prophylactic Activity (%) 0 h (P. berghei ANKA strain [9]; [18]): 100%
